Experimental findings from patent US11339170B1, “Spiropyrrolidine derived antiviral agents” (priority 2021, dated 2022) are described below.

Some results are limits rather than exact numbers.

Assay [1] concerns 229E human corona virus (hCoV). Put plainly: 229E live virus assay (CPE, ATPlite readout) in MRC-5 cells. The following applies: Human coronavirus 229E, MRC5, 144 h, read-out: 229E EC50. Type of assay: cell-based, hCoV-229E.
Another assay has as its target SARS-CoV-2 3CL-protease (Severe acute respiratory syndrome coronavirus 2 (2019-nCoV) (SARS-CoV-2), UniProt P0DTD1). Put plainly: SARS-CoV-2 3C-like (3CL) protease fluorescence assay (FRET). The format is biochemical.

The term EC50 denotes the concentration giving half of the maximal effect. In general, IC50 refers to the midpoint of a concentration-inhibition curve. Low readings indicate inhibition by little substance, high ones a need for much substance. As to `CC(C)C[C@@H](C(=O)N1C[C@]2(C[C@H]1C#N)C(=O)Nc1ccccc12)N(C)C(=O)C(=O)NC(C)(C)C` [Compound 44], in assay [1], the EC50 was below 100 nM. Further, on SARS-CoV-2 3CL-protease, the IC50 is below 100 nM.

For `CN(C(=O)C(=O)Nc1ccc(F)c(F)c1)[C@@H](Cc1ccccc1)C(=O)N1C[C@]2(C[C@H]1C#N)C(=O)Nc1ccccc12` [Compound 45], the EC50 in assay [1] was below 100 nM. Further, the IC50 against SARS-CoV-2 3CL-protease is below 100 nM.

`[2H]C([2H])([2H])N(C(=O)C(=O)Nc1ccc(F)c(F)c1)[C@@H](Cc1ccc(F)cc1)C(=O)N1C[C@]2(C[C@H]1C#N)C(=O)Nc1ccccc12` [Compound 46]: the EC50 in assay [1] was below 100 nM. The same molecule gave an IC50 against SARS-CoV-2 3CL-protease below 100 nM.

Take `[2H]C([2H])([2H])N(C(=O)C(=O)Nc1ccc(F)c(F)c1)[C@@H](CCCC)C(=O)N1C[C@]2(C[C@H]1C#N)C(=O)Nc1ccccc12` [Compound 47]: the 50% effective concentration (EC50) in assay [1] is below 100 nM. In addition, the IC50 at SARS-CoV-2 3CL-protease was below 100 nM.

On to `[2H]C([2H])([2H])N(C(=O)C(=O)C(C)(C)C)[C@@H](CCCC)C(=O)N1C[C@]2(C[C@H]1C#N)C(=O)Nc1ccccc12` [Compound 48], for which the EC50 in assay [1] was below 100 nM. Moreover, the half-maximal inhibitory concentration (IC50) against SARS-CoV-2 3CL-protease is below 100 nM.

For `[2H]C([2H])([2H])N(C(=O)C(=O)NC(C)(C)C)[C@@H](CCCC)C(=O)N1C[C@]2(C[C@H]1C#N)C(=O)Nc1ccccc12` [Compound 49], the EC50 in assay [1] was below 100 nM. On SARS-CoV-2 3CL-protease, this molecule showed an IC50 below 100 nM.

For the molecule `[2H]C([2H])([2H])N(C(=O)C(=O)Nc1cnc2ccccc2c1)[C@@H](CCCC)C(=O)N1C[C@]2(C[C@H]1C#N)C(=O)Nc1ccccc12` [Compound 50], the EC50 in assay [1] is below 100 nM. Besides, the IC50 on SARS-CoV-2 3CL-protease is below 100 nM.

Consider `[2H]C([2H])([2H])N(C(=O)C(=O)Nc1cnc2ccccc2c1)[C@@H](CC1CC1)C(=O)N1C[C@]2(C[C@H]1C#N)C(=O)Nc1ccccc12` [Compound 51], for which the EC50 in assay [1] was below 100 nM. The molecule also gave an IC50 against SARS-CoV-2 3CL-protease below 100 nM.

Turning to `CC(C)C[C@@H](C(=O)N1C[C@]2(C[C@H]1C#N)C(=O)Nc1ccccc12)N(C)C(=O)C(=O)Nc1nc2ccccc2[nH]1` [Compound 52], in assay [1], the half-maximal effective concentration (EC50) was below 100 nM. In addition, on SARS-CoV-2 3CL-protease, the IC50 lay within 100 to 1000 nM.

As to `CC(C)C[C@@H](C(=O)N1C[C@]2(C[C@H]1C#N)C(=O)Nc1ccccc12)N(C)C(=O)C(=O)Nc1nc2ccccc2o1` [Compound 53], the EC50 in assay [1] lay within 100 to 1000 nM. The same molecule had an IC50 against SARS-CoV-2 3CL-protease above 1000 nM.

Take `[2H]C([2H])([2H])N(C(=O)C(=O)Nc1ccc(C(F)(F)F)cc1C(F)(F)F)[C@@H](CC1CC1)C(=O)N1C[C@]2(C[C@H]1C#N)C(=O)Nc1ccccc12` [Compound 68]: in assay [1], the EC50 is below 100 nM. Moreover, on SARS-CoV-2 3CL-protease, the IC50 is below 100 nM.

Take `CC(C)(C)C[C@H](NC(=O)C(=O)NC1CC1)C(=O)N1C[C@]2(C[C@H]1C#N)C(=O)Nc1ccccc12` [Compound 70]: the 50% effective concentration (EC50) in assay [1] is below 100 nM. Besides, the IC50 on SARS-CoV-2 3CL-protease was below 100 nM.

For `CC(C)(C)C[C@H](NC(=O)C(=O)Nc1c(F)cccc1F)C(=O)N1C[C@]2(C[C@H]1C#N)C(=O)Nc1ccccc12` [Compound 71], the EC50 in assay [1] was below 100 nM. In addition, the IC50 against SARS-CoV-2 3CL-protease is below 100 nM.

For the molecule `CC(C)(C)C[C@H](NC(=O)C(=O)NC1(c2ccc(F)cc2F)CC1)C(=O)N1C[C@]2(C[C@H]1C#N)C(=O)Nc1ccccc12` [Compound 72], the concentration for a half-maximal effect (EC50) in assay [1] was below 100 nM. Besides, the IC50 against SARS-CoV-2 3CL-protease was below 100 nM.
